Test systems include EKVX NSCLC; NCI-H226 lung; MCF7 breast; SNB-19 CNS; HT29 colon; ACHN renal; SF-268 CNS; T-47D breast; UO-31 renal; BT-549 breast; RPMI-8226 leukemia; SF-295 CNS; SK-OV-3 ovarian; PC-3 prostate; UACC-62 melanoma; HCC-2998 colon; MOLT-4 leukemia; HOP-62 NSCLC; M14 melanoma.
What all share (assay): NCI anticancer screen, dose series, 48 h

SMILES strings stand for the structures.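 How tested: cells in 96-well plates exposed to compound for 48 hours at five concentrations. TGI: concentration producing complete growth inhibition.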 Bounds are passed on as bounds.

On to `Cn1c2ccccc2c2c(-c3ccccc3)cc3c(c21)C(=O)C=CC3=O`, for which the TGI in the test on EKVX NSCLC was greater than 8.39 µM; in the test on NCI-H226 lung, 5.04 µM; with MCF7 breast it was 4.35 µM; in the test with SNB-19 CNS it was greater than 10 µM; in the test on HT29 colon, greater than 9 µM; with ACHN renal, 3.04 µM. Besides, the TGI is greater than 9.19 µM in the test on SF-268 CNS; 4.9 µM in the test with T-47D breast; 3.37 µM in the test on UO-31 renal; 3.04 µM in the test with BT-549 breast; 4.8 µM in the test with RPMI-8226 leukemia; greater than 10 µM with SF-295 CNS. Further, the TGI is greater than 10 µM with SK-OV-3 ovarian; greater than 6.39 µM in the test on PC-3 prostate; 2.64 µM in the test on UACC-62 melanoma; greater than 8.05 µM in the test on HCC-2998 colon; 1.1 µM with MOLT-4 leukemia; greater than 10 µM in the test with HOP-62 NSCLC. Further, the TGI with M14 melanoma stood at 3.4 µM.

As for `C(=C\c1cccs1)/c1cccc(/C=C/c2cccs2)n1`, the TGI in the test on EKVX NSCLC is greater than 100 µM; with NCI-H226 lung, greater than 100 µM; with MCF7 breast, greater than 100 µM; with SNB-19 CNS, greater than 100 µM; in the test on HT29 colon, greater than 100 µM; in the test with ACHN renal it was 38.9 µM. Further, the TGI with SF-268 CNS is 6.9 µM; in the test with T-47D breast, greater than 100 µM; in the test with UO-31 renal, greater than 100 µM; in the test on BT-549 breast, greater than 100 µM; in the test with RPMI-8226 leukemia, greater than 100 µM; with SF-295 CNS it was greater than 100 µM. Besides, the TGI in the test on SK-OV-3 ovarian, with PC-3 prostate, in the test with UACC-62 melanoma, with HCC-2998 colon, with MOLT-4 leukemia and in the test on HOP-62 NSCLC was greater than 100 µM each time. This compound also gave a TGI in the test with M14 melanoma greater than 100 µM.

Regarding `[N-]=[N+]=Nc1ccccc1C(=O)N1C(=O)c2ccccc2C(=O)N(C(=O)c2ccccc2N=[N+]=[N-])c2ccccc21`, the TGI in the test with EKVX NSCLC, in the test on NCI-H226 lung, in the test on MCF7 breast, in the test on SNB-19 CNS, in the test on HT29 colon and in the test with ACHN renal was greater than 100 µM each time. Also, the TGI in the test with SF-268 CNS, in the test on T-47D breast, in the test on UO-31 renal, in the test on BT-549 breast, in the test on RPMI-8226 leukemia and in the test on SF-295 CNS was greater than 100 µM throughout. Further, the TGI in the test with SK-OV-3 ovarian was greater than 100 µM; in the test on PC-3 prostate it was greater than 100 µM; with UACC-62 melanoma, greater than 100 µM; with HCC-2998 colon it was greater than 100 µM; in the test with MOLT-4 leukemia, 50.7 µM; in the test with HOP-62 NSCLC, 81 µM. In addition, the TGI in the test with M14 melanoma was greater than 100 µM.

Consider `CCOc1cc(NC(C)=O)ccc1C(=O)NN1C(=O)C(Cl)C1c1ccccc1` (stereo not given), for which the TGI was found to be 28.7 µM with EKVX NSCLC; 46.3 µM with NCI-H226 lung; 22.9 µM in the test on MCF7 breast; 28.4 µM with SNB-19 CNS; 31.2 µM in the test on HT29 colon; 29.7 µM with ACHN renal. The TGI with SF-268 CNS was found to be 43.8 µM; in the test with T-47D breast, 35.4 µM; in the test on UO-31 renal, 14.9 µM; in the test with BT-549 breast, 25.6 µM; in the test with RPMI-8226 leukemia, 28.7 µM; in the test on SF-295 CNS it was 37.1 µM. Besides, the TGI came out at 31.7 µM in the test on SK-OV-3 ovarian; 27.8 µM in the test on PC-3 prostate; 23.3 µM in the test with UACC-62 melanoma; 32.3 µM in the test on HCC-2998 colon; 21.3 µM with MOLT-4 leukemia; 44.4 µM in the test with HOP-62 NSCLC. In the test on M14 melanoma, this compound registered a TGI of 27 µM.

Take `CC(=O)C(=C(c1ccccc1)c1ccccc1)c1ccccc1`: the TGI in the test with EKVX NSCLC was 80.2 µM; in the test with NCI-H226 lung it was greater than 100 µM; in the test with MCF7 breast it was greater than 100 µM; in the test with SNB-19 CNS, greater than 100 µM; in the test with HT29 colon, greater than 100 µM; with ACHN renal, greater than 100 µM. Further, the TGI with SF-268 CNS, with T-47D breast, with UO-31 renal, with BT-549 breast, with RPMI-8226 leukemia and in the test on SF-295 CNS was greater than 100 µM in each case. For the same compound, the TGI in the test with SK-OV-3 ovarian, with PC-3 prostate, in the test with UACC-62 melanoma, with HCC-2998 colon, in the test with MOLT-4 leukemia and with HOP-62 NSCLC was greater than 100 µM in each case. For the same compound, the TGI in the test on M14 melanoma is greater than 100 µM.

Take `COC(=O)/C=C(/C)n1nc2ccccc2n1`: the TGI in the test with EKVX NSCLC, in the test with NCI-H226 lung, in the test with MCF7 breast, with SNB-19 CNS, with HT29 colon and in the test on ACHN renal was greater than 100 µM in each case. Also, the TGI in the test on SF-268 CNS, with T-47D breast, in the test with UO-31 renal, in the test with BT-549 breast, in the test on RPMI-8226 leukemia and in the test with SF-295 CNS was greater than 100 µM throughout. Besides, the TGI with SK-OV-3 ovarian, in the test on PC-3 prostate, with UACC-62 melanoma, in the test on HCC-2998 colon, in the test with MOLT-4 leukemia and in the test on HOP-62 NSCLC was greater than 100 µM in each case. Moreover, in the test with M14 melanoma, the TGI was greater than 100 µM.

As to `O=C1c2cc(Cl)ccc2-n2cnnc2C2CSCN12` (stereo not given), the TGI with EKVX NSCLC, in the test with NCI-H226 lung, in the test on MCF7 breast, with SNB-19 CNS, in the test with HT29 colon and in the test on ACHN renal was greater than 100 µM in each case. The TGI with SF-268 CNS, in the test on T-47D breast, in the test with UO-31 renal, in the test with BT-549 breast, with RPMI-8226 leukemia and in the test with SF-295 CNS was greater than 100 µM throughout. Also, the TGI in the test on SK-OV-3 ovarian, in the test with PC-3 prostate, in the test on UACC-62 melanoma, with HCC-2998 colon, in the test with MOLT-4 leukemia and in the test with HOP-62 NSCLC was greater than 100 µM each time. This compound also had a TGI in the test with M14 melanoma greater than 100 µM.

Turning to `C=CCN1C(=O)/C(=C/c2ccco2)N=C1SC/C=C/C`, the TGI in the test with EKVX NSCLC was greater than 100 µM; with NCI-H226 lung, greater than 100 µM; with MCF7 breast it was 65.1 µM; with SNB-19 CNS, greater than 100 µM; in the test with HT29 colon, greater than 100 µM; in the test on ACHN renal, greater than 100 µM. Moreover, the TGI is greater than 100 µM in the test with SF-268 CNS; greater than 100 µM with T-47D breast; greater than 100 µM in the test on UO-31 renal; greater than 100 µM in the test with BT-549 breast; 76.6 µM with RPMI-8226 leukemia; greater than 100 µM with SF-295 CNS. Besides, the TGI with SK-OV-3 ovarian was greater than 100 µM; in the test with PC-3 prostate, greater than 100 µM; with UACC-62 melanoma, 73.7 µM; in the test with HCC-2998 colon, greater than 100 µM; in the test on MOLT-4 leukemia it was 54.7 µM; in the test with HOP-62 NSCLC it was greater than 100 µM. Besides, in the test on M14 melanoma, the TGI is greater than 100 µM.

`O=C(CC(=O)N(C(=O)/C=C\c1ccccc1)c1ccc(Cl)cc1)N1N=C(c2ccccc2)C(N=Nc2cccc([N+](=O)[O-])c2)C1=O` (stereo not given): the TGI was greater than 100 µM with EKVX NSCLC; 55.9 µM in the test with NCI-H226 lung; 28.4 µM in the test with MCF7 breast; greater than 100 µM in the test with SNB-19 CNS; 15.2 µM in the test with HT29 colon; greater than 100 µM in the test with ACHN renal. Further, the TGI with SF-268 CNS is 26.2 µM; in the test with T-47D breast, greater than 100 µM; in the test with UO-31 renal it was greater than 100 µM; in the test on BT-549 breast it was 46.9 µM; with RPMI-8226 leukemia it was 93.4 µM; in the test with SF-295 CNS it was 25.2 µM. For the same compound, the TGI was 40.7 µM with SK-OV-3 ovarian; 14.4 µM in the test on PC-3 prostate; 42.1 µM in the test on UACC-62 melanoma; greater than 100 µM with HCC-2998 colon; 24.7 µM in the test on MOLT-4 leukemia; 40.8 µM with HOP-62 NSCLC. Moreover, the TGI in the test with M14 melanoma is greater than 100 µM.

In the case of `OC1(c2cccs2)c2cccc(Cl)c2C(O)(c2cccs2)c2c(Cl)cccc21` (stereo not given), the TGI with EKVX NSCLC, with NCI-H226 lung, in the test on MCF7 breast, in the test with SNB-19 CNS, in the test with HT29 colon and with ACHN renal was greater than 100 µM in each case. For the same compound, the TGI was 75 µM in the test with SF-268 CNS; greater than 100 µM in the test with T-47D breast; greater than 100 µM in the test on UO-31 renal; greater than 100 µM in the test on BT-549 breast; greater than 100 µM in the test on RPMI-8226 leukemia; greater than 100 µM with SF-295 CNS. In addition, the TGI in the test with SK-OV-3 ovarian, in the test with PC-3 prostate, with UACC-62 melanoma, with HCC-2998 colon, with MOLT-4 leukemia and in the test on HOP-62 NSCLC was greater than 100 µM in each case. In addition, the TGI with M14 melanoma is greater than 100 µM.

The values are drawn from PubChem BioAssay (NCI).
